US5475029A, “Farnesyl compounds as cholesterol lowering agents” (The Board of Trustees of the Leland Stanford Junior …, priority 1993, dated 1995)

Legend:
[1] = tested on: HMGal; assay: HMGal activity (in vitro β-galactosidase specific activity) in CHO-HMGal cells; type: cell-based; conditions: for reduction in HMGal activity at concentrations below the levels toxic to the cells: five isoprenoid compounds tested
Protocol: (§1) Cell Culture--All cells were grown as monolayers at 37° C. in an atmosphere of 5% CO2. CHO-HMGal cells were grown in minimal essential medium (MEM) supplemented with 0.25 mg/ml active geneticin and either 5% fetal calf serum (FCS) or 5% lipid-poor fetal calf serum (LPS).
Stock Solutions--Stock solutions of farnesyl acetate, ethyl farnesyl ether, and the mixture of 25-hydroxycholesterol with cholesterol were all made in 100% ethanol at 100 times the final concentration. In all experiments in which these compounds were used, there is a final concentration of 1% ethanol in the medium. For control, cells grown with "no additives" or "mevalonate" 100% ethanol was added to the medium to bring the final concentration of ethanol to 1%. The mevalonate stock solution was prepared at a concentration of 2M in 20 mM potassium phosphate buffer (pH 4.5).
(§2) β-galactosidase Specific Activity--In vitro β-galactosidase activity was measured using the substrate, o-nitrophenyl-β-D-galactopyranoside. Specific activities were calculated using protein concentration values.
Farnesyl acetate and ethyl farnesyl ether stimulate a reduction in HMGal activity--In an attempt to identify tile non-sterol metabolite(s) that triggers the down regulation of HMG-CoA reductase, five commercially available isoprenoid compounds were tested for their effects on HMGal activity in CHO-HMGal cells. Each of tile compounds tested closely resembled one of tile naturally occurring isoprenoid pyrophosphates, except that the pyrophosphate group had been replaced by either a hydroxyl or an […] group. The compounds tested included: 3-methyl-2-buten-1-ol, the alcohol of the five carbon isoprenoid-dimethylallyl pyrophosphate (a naturally occurring isomer of isopentenyl pyrophosphate); geraniol and geranyl acetate, the alcohol and the […] of the ten carbon isoprenoid-geranyl pyrophosphate; and farnesol and farnesyl acetate, the alcohol and the […] of the fifteen carbon isoprenoid-farnesyl pyrophosphate.
(§3) To confirm that the reduction in HMGal activity was the result of a regulatory function specifically targeting the membrane domain of HMGal, the effects of farnesyl acetate on β-galactosidase activity were measured in vitro for both CHO-HMGal cells and CHO-Gal cells. The CHO-Gal cells had been stably transfected with a construct identical to the HMGal construct (using the same vector, promoter, and 5' and 3' flanking regions) except that the construct in the CHO-Gal cells codes for a soluble β-galactosidase protein instead of the HMGal fusion protein with the membrane domain of HMG-CoA reductase. In this experiment, the CHO-Gal cells served to control for any artifacts farnesyl acetate might cause in the β-galactosidase assay or any nonspecific effects farnesyl acetate might have on the rates of protein synthesis or degradation.

[2] = tested on: HMGal; assay: HMGal degradation rate (pulse-chase); type: cell-based; conditions: 10 μg/ml during chase; untreated 6.4 hours
Protocol: (§4) Measurement of HMGal and HMG-CoA Reductase Degradation Rates Cells grown in 60×15 mm dishes were washed once with ice-cold PBS and starved for 1 hour in 1 ml of methionine-free MEM supplemented with 5% LPS, 250 μg/ml of active geneticin, 10 μM compactin, and 0.1 mM mevalonate. These cells were radio-labeled for 2 hours in 300 μl of the methionine-free starvation medium containing 100 μCi of Tran^35 S-label (>1,000 Ci/mmol). Cells were incubated in an MEM-based chase medium containing 2 mM methionine, 5% LPS, 250 μg/ml of active geneticin, 10 μM compactin, and 0.1 mM mevalonate. During the chase period, some plates also had either 20 mM mevalonate, 10 μg/ml farnesyl acetate or 10 μg/ml ethyl farnesyl ether added to them as indicated in the figure legend. Following the chase, cells were washed, lysed and the HMGal and HMG-CoA reductase proteins were immunoprecipitated, subjected to SDS-PAGE and quantified.
(§5) In order to test whether the farnesyl compounds impact degradation, the rates of degradation for HMGal, HMG-CoA reductase, and total cellular protein were measured in the presence and absence of 10 μg/ml farnesyl acetate and ethyl farnesyl ether.

[3] = tested on: β-galactosidase; assay: β-galactosidase activity in CHO-Gal control cells; type: cell-based
Protocol: as §2, §3

[4] = tested on: total cellular protein; assay: Total cellular protein degradation; type: cell-based; conditions: 10 μg/ml
Protocol: as §4, §5

[5] = tested on: cholesterol biosynthesis; assay: [3H]acetate incorporation into cholesterol in CHO-HMGal cells; type: cell-based
Protocol: (§6) Thin Layer Chromatography--TLC was performed using Analtech 250 μm silica gel G plates with a hexanes/diethyl ether (1:1) solvent system. Lipid standards were visualized by iodine staining. Bands were scraped from the plate and their radioactivity was measured.
(§7) Quantification of Radioactivity--Samples were suspended in 4 ml of scintillation fluid (Cytoscint from ICN). The radioactivity of the samples was measured using a Beckman LS-7500 scintillation counter.
Subsequently, the cells were labeled for 1,2, and 4 hours with [^3 H]acetate and harvested. The non-saponifiable lipid fraction from each cell type was extracted and separated by TLC. The radioactivity that co-migrated with cholesterol was measured and normalized for the amount of cellular protein.
Farnesyl acetate and ethyl farnesyl ether were only present during the labeling period so that any reduction in incorporation into cholesterol would be the result of inhibition and not a down regulation in HMG-CoA reductase.

[6] = tested on: HMG-CoA reductase; assay: HMG-CoA reductase degradation rate (pulse-chase); type: cell-based; conditions: 10 μg/ml during chase; untreated 9.3 hours
Protocol: as §4, §5

[7] = tested on: cholesterol biosynthetic pathway; assay: TLC distribution of [3H]acetate-derived non-saponifiable lipids (site of metabolic block); type: cell-based; design: radioactivity in the cell-derived fraction co-migrating with lanosterol / radioactivity in the cell-derived fraction co-migrating with squalene / radioactivity in the cell-derived fraction co-migrating with cholesterol / remaining radioactivity in the cell-derived fraction scattered throughout the rest of the TLC lane: concentration or dose not given beside the values
Protocol: Lipid Saponification and Extraction Procedure Saponification and extraction of lipids from cell and media samples was performed as previously described in Bradfute, et al. (1992) J.B.C. 267:18308-18314.
as §6, §7
To determine tile site of tile metabolic block caused by farnesyl acetate and ethyl farnesyl ether, the non-saponifiable lipids from cells grown in the presence of the farnesyl compounds were examined for the accumulation of intermediates in the cholesterol biosynthetic pathway. The cells were only labeled for 1 hour and only treated with the farnesyl compounds during the labeling period; so that any intermediates which accumulated would be as a result of the inhibitory effects of the farnesol compounds and not subsequent regulatory effects on HMG-CoA reductase. CHO-HMGal cells were incubated with [^3 H]acetate and either farnesyl acetate, ethyl farnesyl ether, or no additive. The non-saponifiable lipids were isolated from both the cell, and the medium and separated by TLC.

[8] = tested on: CHO-HMGal cells; assay: Cell growth of CHO-HMGal cells in farnesyl compounds; type: cell-based; conditions: 20 μg/ml
Protocol: as §1
Cell growth in farnesyl acetate and ethyl farnesyl ether CHO-HMGal cells were grown in a range of farnesyl acetate and ethyl farnesyl ether concentrations, in order to determine the optimal concentration of the farnesyl compounds to use in subsequent experiments.

[9] = tested on: HMG-CoA reductase; assay: HMG-CoA reductase synthesis rate ([35S]methionine incorporation); type: cell-based; conditions: 20 mM
Protocol: (§8) Measurement of HMGal and HMG-CoA Reductase Synthesis Rates Cells plated into 60×15 mm dishes were grown in 5% LPS MEM with 0.25 mg/ml active geneticin for 24 hours. These cells were washed with PBS and grown for 24 hours in 5% LPS MEM supplemented with 0.25 mg/ml active geneticin, 10 μM compactin and 0.1 mM mevalonate. After 24 hours, the medium was removed, the cells were washed with PBS and the medium was replaced with methionine-free MEM supplemented with 5% LPS, 250 μg/ml of active geneticin, 10 μM compactin, and 0.1 mM mevalonate. In addition, 20 mM mevalonate or 10 μg/ml farnesyl acetate was included in those plates previously treated with these compounds. […] Cells were washed, lysed and the HMGal and HMG-CoA reductase proteins were immunoprecipitated, subjected to SDS-PAGE and quantified. […]
(§9) Farnesyl compounds reduce translation and stimulate degradation of HMG-CoA reductase and HMGal A reduction in HMGal specific activity triggered by the farnesyl compounds could have been the result of a decrease in HMGal synthesis, an increase in HMGal degradation, or a combination of changes in both the synthesis and degradation rates. In order to test whether the farnesyl compounds impact synthesis, the rates of HMGal, HMG-CoA reductase, and total cellular protein synthesis were measured by [^35 S]methionine incorporation in the presence and absence of 10 μg/ml farnesyl acetate.

[10] = tested on: HMGal; assay: HMGal synthesis rate ([35S]methionine incorporation); type: cell-based; conditions: 20 mM
Protocol: as §8, §9

[11] = tested on: squalene synthase; assay: Squalene synthase assay (cell lysate); type: biochemical; conditions: 1 nM to 50 μM
Protocol: Squalene Synthase Assay--The cell lysate was prepared immediately prior to running the assay. Cells were washed three times with PBS, once with a 0.1M potassium phosphate buffer (pH 7.4) containing 5 mM MgCl2 and 5 mM CHAPS, and once with a 0.01M potassium phosphate buffer (pH 7.4) containing 0.5 mM MgCl2 and 0.5 mM CHAPS. Cells were scraped with a rubber policeman in approximately 0.5 ml of the final wash buffer and dounce homogenized with 20 strokes, while on ice. An aliquot of cell lysate was examined with a light microscope to ensure that essentially all cells in the sample were lysed. An additional aliquot of cell lysate was saved for protein determination. […] The squalene was isolated by TLC and the radioactivity of the squalene bands was measured as previously described. […]
Since both farnesyl compounds have a structural similarity to farnesyl pyrophosphate, the substrate for squalene synthase, and some of the farnesyl compounds that have been tested function as a competitive inhibitor of squalene synthase, the effects of farnesyl acetate on in vitro squalene synthase activity was measured. As a positive control, squalene synthase activity was also measured in tile presence of zaragozic acid A, a potent competitive inhibitor of the enzyme. […]

[12] = 1 hour labeling with [3H]acetate, compound only during labeling

## CC(C)=CCO [3-methyl-2-buten-1-ol, reference compound]
[1]
  reduction in HMGal activity at concentrations below the levels toxic to the cells: only farnesyl acetate stimulated a reduction in HMGal activity

## CCOCC=C(C)CCC=C(C)CCC=C(C)C [ethyl farnesyl ether]
[2]
  half-life of HMGal: 3.0 h
  reduction of the half-life of HMGal: 50%
[3]; 10 μg/ml
  change of β-galactosidase activity of CHO-Gal cells: insignificant
[3]; 20 μg/ml
  change of β-galactosidase activity of CHO-Gal cells: essentially unchanged
[4]
  effect on the degradation of total cellular protein: Neither farnesyl compound had a significant effect
[1]; 10 μg/ml, 24 hour treatment
  reduction of HMGal activity: 40%
[1]; 20 μg/ml
  reduction of HMGal activity: 50%
[5]; 24 hours pretreatment, then labeled 1, 2 and 4 hours, CHO-HMGal cells
  reduction in [3H]acetate incorporation into cholesterol: 95%
[5]; compound present only during the labeling period, no pretreatment
  reduction in [3H]acetate incorporation into cholesterol: 98%
[6]
  half-life of HMG-CoA reductase: 2.9 h
  reduction of the half-life of HMG-CoA reductase: 70%
[7]; [12]
  radioactivity in the cell-derived fraction co-migrating with cholesterol: 1%
  radioactivity in the cell-derived fraction co-migrating with lanosterol: 48%
  radioactivity in the cell-derived fraction co-migrating with squalene: 45%
  remaining radioactivity in the cell-derived fraction scattered throughout the rest of the TLC lane: 6%
[7]; untreated 6%
  total non-saponifiable radioactivity found in the medium: 14%
[7]; untreated 94%
  total non-saponifiable radioactivity found in the cells: 86%
[7]; versus untreated sample
  increase in media-derived material co-migrating with farnesol: 2 fold
[8]
  reduction in cell growth: approximately 60%

## CC(C)=CCCC(C)=CCCC(C)=CCO [farnesol, reference compound]
[1]
  reduction in HMGal activity at concentrations below the levels toxic to the cells: only farnesyl acetate stimulated a reduction in HMGal activity

## CC(C)=CCC/C(C)=C/CO [geraniol, reference compound]
[1]
  reduction in HMGal activity at concentrations below the levels toxic to the cells: only farnesyl acetate stimulated a reduction in HMGal activity

## CC(=O)OC/C=C(\C)CCC=C(C)C [geranyl acetate, reference compound]
[1]
  reduction in HMGal activity at concentrations below the levels toxic to the cells: only farnesyl acetate stimulated a reduction in HMGal activity

## CC(O)(CCO)CC(=O)O (centres unmarked) [mevalonate, reference compound]
[9]
  reduction in HMG-CoA reductase synthesis: 70%
[10]
  reduction in the rate of HMGal synthesis: 70%

## C=C(CC[C@]12O[C@H](C(=O)O)[C@@](O)(C(=O)O)[C@](C(=O)O)(O1)[C@H](OC(=O)/C=C/[C@@H](C)C[C@@H](C)CC)[C@H]2O)[C@@H](OC(C)=O)[C@H](C)Cc1ccccc1 [zaragozic acid A, reference compound]
[11]
  inhibition of in vitro squalene synthase activity: more than 90%
